In US20050215635A1, “Diarylheptanoid compounds and uses thereof” (priority 2004, published 2005):

Legend:
[1] = Radical-scavenging activity by DPPH
Text: In this example, the 2,2-diphenyl-1-picrylhydrazyl (DPPH) method was used to explore the capacity of five isolated compounds of the invention to act as free radical scavengers. The DPPH assay has been extensively used to test the free radical scavenging ability of various chemicals (Brand-williams, W. et al., Wiss. Technol. 1995, 28, 25-30; Dinis, T. C. et al., Arch. Biochem. Biophys. 1994, 315, 161-169.)
This method was adapted from that of Brand-Williams, et al. (Brand-williams, W.; Cuvelier, M. E.; Berset, C. Lebensm. Wiss. Technol. 1995, 28, 25-30.). At least seven different concentrations were prepared for each purified compound. 25 μl pure compound solution and 975 μL DPPH solution (63.4 μM) were mixed together and left in the dark for 30 min. Each sample was triplicated and the values were averaged. The absorbance of the samples was measured at 515 nm against methanol solution without DPPH as the blank reference. The absorbance was measured every 30 min until the reaction reached a plateau. The reaction kinetics were then plotted using the above data and the percentage of DPPH remaining at the steady state was obtained. IC50 values were determined by extrapolation from linear regression analysis.
DPPH, 2,2-Diphenyl-1-picrylhydrazyl (DPPH.), is a stable radical in methanol solution. In its radical form, DPPH. absorbs at 515 nm, but the absorption ceases upon reduction by an antioxidant (AH) or a radical species (R.) (Brand-williams, W.; Cuvelier, M. E.; Berset, C. Lebensm. Wiss. Technol. 1995, 28, 25-30.). The concentration of tested chemicals needed to decrease the initial DPPH. concentration by 50% (IC50) is a parameter widely used to measure the antioxidant potential (Kanner, J.; Frankel, E.; German, B.; Kinsella, J. e. J. Agric. Food Chem. 1994, 42, 64-69, Vinson, J. A.; Dabbagh, Y. A.; Serry, M. M. J. Agric. Food Chem. 1995a, 43,2800-2802.). The lower the IC50, the higher the free radical scavenging power.

iNOS mRNA expression = experiment: Relative RT-PCR of iNOS mRNA expression in RAW 264.7 cells; format: cell-based, mouse; conditions: RAW 264.7, 12 hrs
Experimental: (§1) FIG. 4A and B: Effect of HMP on mRNA expression of iNOS and COX-2. Fig. A, RAW 264.7 cells were incubated in the presence of LPS (0.5 μg/ml) with or without HMP (12.5, 25 μM) for 12 hrs. Total RNA isolated from RAW 264.7 cells after 12 hrs of treatments with LPS alone or with various concentration of HMP was reverse transcribed to make cDNA and 2 μl (for iNOS) or 1 μl (for COX-2) of cDNA was amplified using gene specific primer (Ambion Inc). Ten μl of each PCR reaction was resolved in 2% agarose gel. Lane 1, control; 2. LPS (0.5 μg/ml); 3, LPS+HMP (12.5 μM) and Lane, 4 LPS+HMP (25 μM). Fig. B, Histogram showing densitometric analysis of iNOS and COX-2 mRNA expression. […] This experiment was repeated 3 times separately with similar observation.
(§2) The RAW 264.7 cells were cultured (10^6/well) in 6 well plate for 24 hrs and then medium was replaced by fresh medium and different concentrations of HMP either alone or in combination of LPS was added and further cultured for 12 hrs. […] Linear range of amplification of iNOS and COX-2 cDNA (2 μl for COX-2 and 1μl for iNOS of RT reaction mixture) was determined using gene specific primers from Ambion Inc (TX, USA), following manufacturer's instruction. The optimum amount of 18S primer and competitor for iNOS and COX-2 gene were also determined as per manufacturer's instruction. […]

COX-2 mRNA expression = experiment: Relative RT-PCR of COX-2 mRNA expression in RAW 264.7 cells; format: cell-based, mouse; conditions: RAW 264.7, 12 hrs
Experimental: as §1, §2

COc1cc(CC/C=C/C(=O)CCc2ccccc2)ccc1O [AO-4, 7-(4″-hydroxy-3″-methoxyphenyl)-1-phenyl-hept-4-en-3-one]
IC50 ([1]; DPPH 63.4 μM in methanol, absorbance at 515 nm, steady state, read-out: IC50 (μM) of Diarylheptanoids in Scavenging DPPH Free Radicals): 13.7 µM | free radical scavenging, DPPH data (in words) ([1]; DPPH assay): very good free radical scavengers | inhibition of LPS induced iNOS mRNA expression (densitometry, ratio to 18 S RNA) (iNOS mRNA expression; HMP 12.5 μM + LPS (0.5 μg/ml)): 47.8% | inhibition of LPS induced iNOS mRNA expression (densitometry, ratio to 18 S RNA) (iNOS mRNA expression; HMP 25 μM + LPS (0.5 μg/ml)): 75.5% | inhibition of LPS induced COX-2 mRNA expression (densitometry, ratio to 18 S RNA) (COX-2 mRNA expression; HMP 12.5 μM + LPS (0.5 μg/ml)): 27.3% | inhibition of LPS induced COX-2 mRNA expression (densitometry, ratio to 18 S RNA) (COX-2 mRNA expression; HMP 25 μM + LPS (0.5 μg/ml)): 54.6%
